Data set [1] deals with other murine EP receptors or DP, TP, FP or IP receptors. As to conditions: cited from earlier work.
The target in data set [2] is recombinant murine EP2 receptor (Mus musculus, UniProt Q62053). The note with it: fraction of the affinity of PGE2; cited from earlier work.
Data set [3] has as its system ocular hypertensive non-human primates. Kind of data set: IOP change after topical application in ocular hypertensive non-human primates. The note with it: for Tmax: time point of maximum IOP reduction. The data set is classed as in vivo. How it is done: Tables 2 and 3 describe the intraocular pressure (IOP) changes that were seen following topical application of EP2 agonists in ocular hypertensive non-human primates. Typically, compounds in suitable formulations were dosed topically and IOP was measured using tonometry. Changes in IOP between vehicle treatment followed by treatment with EP2 compounds were assessed over time in the dosed hypertensive eye. ΔΔ Emax reflects the difference in IOP from EP2 compound-treated eye over that seen for vehicle-treated eye at the timepoint wherein maximum IOP reduction for compound was seen. The percent ΔΔ Emax was the percentage change in IOP reduction conferred by compound over that for vehicle (set at 100%). Tmax represents the time point at which maximum IOP reduction of compound was observed. […] NS represents not significant. Table 2 compares acids of EP2 compound while Table 3 compares IOP response seen with esters of certain acids. Esters provide better corneal penetration and improved drug exposure in the anterior chamber compared to acids and are therefore dosed at ⅕th the dose for acids […].

Another data set relates to newborn piglets. The note with it: brief hypoxia, in the presence of PG synthase inhibitors; cited from earlier work.
Data set [4] concerns the target T1, EP2 (Homo sapiens, UniProt P43116). Details: expressed in transfected cells; host or cells: COS cells. The note with it: COS cells transfected with the human EP2 receptor; read-out: EC50 for the stimulation of cAMP; cited from earlier work.
In another data set the test system is ciliary muscle. As to conditions: topical ocular QD for 1 year; treated and contralateral eyes; cited from earlier work.
In another data set the test system is glaucomatous dogs. Kind of data set: IOP change after topical instillation in glaucomatous dogs. The class given is in vivo. The note with it: single 50 μl drop, @ 6 h, drawing 64 […] ([…]), drawing 65 0.1 mg/ml (0.01%). How it is done: Typically, compounds in suitable formulations were dosed topically and IOP was measured using tonometry. A single 50 μl drop containing either vehicle or drug was instilled in each eye of glaucomatous dogs and IOP was measured at 1, 2, 4, and 6 hours post dose. A baseline IOP measurement was taken prior to topical instillation of vehicle or drug. Changes in IOP between vehicle treatment followed by treatment with EP2 compounds were assessed over time in the glaucomatous dogs. ΔΔ Emax reflects the difference in IOP±standard error from EP2 compound-treated eye over that seen for vehicle-treated eye at the time point wherein maximum IOP reduction for compound was seen. The percent ΔΔ Emax was the percentage change in IOP reduction conferred by compound over that for vehicle (set at 100%).

For data set [5], the target named is T1, EP2. Kind of data set: EP2 cAMP EC50 (Table 1). The data set is classed as cell-based.
For data set [6], the target named is T2, prostaglandin E2 type 2 (EP2) receptors (Homo sapiens, UniProt P43116).
T2 construct: expressed in transfected cells
Kind of data set: Assay for binding to prostaglandin E2 receptors (3H-prostaglandin E2 displacement, membranes of transfected cells). As to conditions: displacement of 3H-prostaglandin E2. How it is done:
All operations are performed at 4° C. […] These are lysed by sonification with a Branson Sonifier (Model #250, Branson Ultrasonics Corporation, Danbury, Conn.) in 2 fifteen second bursts. Unlysed cells and debris are removed by centrifugation at 100×g for 10 min. Membranes are then harvested by centrifugation at 45,000×g for 30 minutes. Pelleted membranes are resuspended to 3-10 mg protein per ml, protein concentration being determined according to the method of Bradford [Bradford, M., Anal. Biochem., 72, 248 (1976)]. Resuspended membranes are then stored frozen at −80° C. until use.
Frozen membranes as prepared are thawed and diluted to 1 mg protein per ml in Buffer A. One volume of membrane preparation is combined with 0.05 volume test compound or buffer and one volume of 3 nM 3H-prostaglandin E2 (#TRK 431, Amersham, Arlington Heights, Ill.) in Buffer A. The mixture (205 μL total volume) is incubated for 1 hour at 25° C. The membranes are then recovered by filtration through type GF/C glass fiber filters (#1 205401, Wallac, Gaithersburg, Md.) using a Tomtec harvester (Model Mach II/96, Tomtec, Orange, Conn.). The membranes with bound 3H-prostaglandin E2 are trapped by the filter, the buffer and unbound 3H-prostaglandin E2 pass through the filter into waste. Each sample is then washed 3 times with 3 ml of [50 mM Tris-HCl (pH 7.4), 10 mM MgCl2, 1 mM EDTA]. The filters are then dried by heating in a microwave oven. To determine the amount of 3H-prostaglandin bound to the membranes, the dried filters are placed into plastic bags with scintillation fluid and counted in a LKB 1205 Betaplate reader (Wallac, Gaithersburg, Md.). IC50s are determined from the concentration of test compound required to displace 50% of the specifically bound 3H-prostaglandin E2.

The nature of data set [7]: Solid form by powder X-ray diffraction. The data set is classed as physicochemical. The note with it: FIG. 1. How it is done: During analysis, the samples were analyzed from angles of 4 to 40 degrees (θ-2θ) using a scan time of 60 seconds and a scan spot size of 0.5 mm.
The X-Ray diffraction peaks, characterized by peak positions and intensity assignments, have been extracted from the X-ray powder diffractogram of Example 1 and comparative compound 12. One of skill in the art will appreciate that the peak positions (2θ) will show some inter-apparatus variability, typically as much as 0.1 degrees. Accordingly, where peak positions (2θ) are reported, one of skill in the art will recognize that such numbers are intended to encompass such inter-apparatus variability.

Data set [8] has as its system murine astrocyte cultures. As to conditions: cited from earlier work.
Data set [9] deals with ocular hypertensive non-human primates. Kind of data set: IOP change after topical application in ocular hypertensive non-human primates. The class given is in vivo. As to conditions: isopropylesters, OHT primates, NT eye.

Read-outs that look alike come from different tables or passages of the source.

The source of these data is patent US7622475B2, “EP2 agonists” (Pfizer Inc, priority 2006, dated 2009).

T1 sequence (P43116 whole entry): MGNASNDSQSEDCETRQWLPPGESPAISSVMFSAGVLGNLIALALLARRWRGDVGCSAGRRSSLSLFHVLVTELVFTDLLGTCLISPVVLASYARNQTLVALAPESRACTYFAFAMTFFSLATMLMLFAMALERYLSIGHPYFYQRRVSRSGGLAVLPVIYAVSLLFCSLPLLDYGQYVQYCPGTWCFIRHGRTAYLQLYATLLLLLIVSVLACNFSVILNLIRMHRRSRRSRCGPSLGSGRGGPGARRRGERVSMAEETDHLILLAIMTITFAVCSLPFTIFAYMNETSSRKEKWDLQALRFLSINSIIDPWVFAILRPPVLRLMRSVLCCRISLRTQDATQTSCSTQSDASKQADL
T2 sequence (P43116 whole entry): as above
Chain of recombinant murine EP2 receptor (Q62053 whole entry): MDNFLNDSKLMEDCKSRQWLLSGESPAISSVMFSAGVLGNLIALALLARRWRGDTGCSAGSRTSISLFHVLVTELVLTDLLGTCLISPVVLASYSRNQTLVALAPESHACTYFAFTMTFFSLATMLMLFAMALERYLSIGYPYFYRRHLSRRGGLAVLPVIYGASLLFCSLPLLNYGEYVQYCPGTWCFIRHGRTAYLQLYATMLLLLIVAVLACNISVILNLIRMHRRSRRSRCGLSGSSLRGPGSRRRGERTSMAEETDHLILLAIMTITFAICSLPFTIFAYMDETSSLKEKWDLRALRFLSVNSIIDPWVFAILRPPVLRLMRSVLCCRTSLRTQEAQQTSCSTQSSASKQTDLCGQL

The EC50 is the concentration needed to bring the measured effect to its halfway point. Regarding `CCCC1([C@H](O)C/C=C/[C@H]2[C@H](O)CC(=O)[C@@H]2CCCCCCC(=O)OC)CCC1` (racemic) [Butaprost, (+/−)-15-Deoxy-16S-hydroxy-17-cyclobutyl PGE1], the “binding to other prostanoid receptors” value in data set [1] is given as “does not bind appreciably”. Also, the “affinity relative to PGE2” value in data set [2] is “about 1/10”. Moreover, the change in vivo at 0.1 % in data set [3] (Primates, topical, acid EP2 agonists, Conc 0.1 %, topical, vs vehicle (set at 100%), read-out: ΔΔEmax (%)) was -18%. The “ΔΔEmax (mm Hg)” value in [3] (acid EP2 agonists, Conc 0.1 %, topical, dosed hypertensive eye vs vehicle) is −5.5 mm Hg. In addition, the “Tmax” value in [3] (acid EP2 agonists, Conc 0.1 %) was determined as 5 h. Further, the “electrophysiological changes (VEPs and ERGs)” value in the data set on newborn piglets was “restoration of electrophysiological changes”. Moreover, the 50% effective concentration (EC50) on EP2 [4] was around 5000 nM.

For `CCCCCC(O)c1ccc(C2CCC(=O)C2CCCCCCC(=O)O)cc1` (stereo not shown) [AH-13205], the “number of nerve bundles in ciliary muscle” value with ciliary muscle is “doubling in the number of nerve bundles in ciliary muscle”.

In general, IC50 refers to the point on the concentration scale where inhibition reaches its midpoint. Lower therefore signals greater potency in that assay. In the case of `CC(C)OC(=O)COc1cccc(CN(Cc2ccc(-n3cccn3)cc2)S(=O)(=O)c2cccnc2)c1` [Example 1, isopropyl [3-({[4-(1H-pyrazol-1-yl)benzyl](pyridin-3-yl-sulfonyl)amino}methyl)phenoxy]acetate], in the data set on glaucomatous dogs, the ΔΔEmax (%) was −33% @ 6 h and the “ΔΔEmax (mmHg)” value was −7.0 1.2 mmHg @ 6 h. On EP2 [5], this molecule came in with a concentration for a half-maximal effect (EC50) of 1.48 nM. In data set [6], this molecule returned an IC50 of 10 nM. The solid form entry in data set [7] is “crystalline form”.

Take `CC(C)(C)OC(=O)COc1cccc(CN(Cc2ccc(-n3cccn3)cc2)S(=O)(=O)c2cccnc2)c1` [Example C12, t-butyl [3-({[4-(1H-pyrazol-1-yl)benzyl](pyridin-3-yl-sulfonyl)amino}methyl)phenoxy]acetate, reference compound]: in the data set with glaucomatous dogs, the ΔΔEmax (%) is listed as −34% @ 6 h and the “ΔΔEmax (mmHg)” value is reported as −8.0 1.7 mmHg @ 6 h. This molecule also gave a concentration giving a half-maximal response (EC50) at EP2 [5] of 1.48 nM. Moreover, the 50% inhibitory concentration (IC50) in [6] amounted to 10 nM. The solid form entry in data set [7] is “gummy material”.

As to `CCCCC[C@H](O)/C=C/[C@H]1[C@H](O)CC(=O)[C@@H]1C/C=C\CCCC(=O)O` [PGE2, prostaglandin E2], the “synthesis and secretion of BDNF and NGF” value in data set [8] was “stimulate synthesis and secretion of brain-derived neurotrophic factor (BDNF) and nerve growth factor (NGF)”.

Take `CC(C)OC(=O)COc1cccc(CN(Cc2ccc(-n3cccn3)cc2)S(=O)(=O)c2cccnc2)c1` [drawing 61]: the “ΔΔEmax (mmHg)” value in data set [9] is reported as −7.5 mmHg; in [3] (isopropylesters, OHT primates, OHT eye, 0.1 mg/ml topical), −14 mmHg. Also, in [3] (isopropylesters, OHT primates), the “Tmax” value worked out at 6 h.
